In US6333320A, “Hexahydro-1,4-diazepine derivatives or salts thereof” (Yamanouchi Pharmaceutical Co., priority 1997, dated 2001):
Where a name gives a salt, the structure may show the parent alone.

Biological target: T1, human activated blood coagulation factor X (Homo sapiens, UniProt P00742)
T1 construct: disulfide-linked light and heavy chains of one precursor) added to human plasma with CaCl2; clotting time CT2
Test: measuring the time for blood coagulation with the human activated blood coagulation factor X
Type: biochemical
Conditions: dose of the test compound for 2-time prolongation of the coagulation time; human plasma, 37° C.; read-out: Test for measuring coagulation time with the human activated blood coagulation factor X, CT2
Procedure: 1) Method of measuring the time for blood coagulation with the human activated blood coagulation factor X:
The human activated blood coagulation factor X (Cosmo-Bio Co.) was dissolved in 0.05 M tris-HCl buffer (pH=7.40) to prepare its solution of 0.05 units/ml. Blood was collected in 3.8% sodium citrate to be 1/10 by volume, and centrifuged at 3,000 rpm for 10 minutes to separate human plasma therefrom. 90 μl of the thus-prepared human plasma, 10 μl of a test compound as diluted with physiological saline, and 50 μl of the solution of the activated blood coagulation factor X were kept warmed at 37° C. for 3 minutes, to which was added 100 μl of a solution of 20 mM CaCl2, and the time for blood coagulation in the system was measured.
To measure the coagulation time, used was Amelung's KC4A. The dose of the test compound for 2-time prolongation of the coagulation time (hereinafterreferred to as CT2) was calculated on the basis of the coagulation time for the control to which was added 10 μl of physiological saline with no test compound.

T1 sequence (P00742 41-179): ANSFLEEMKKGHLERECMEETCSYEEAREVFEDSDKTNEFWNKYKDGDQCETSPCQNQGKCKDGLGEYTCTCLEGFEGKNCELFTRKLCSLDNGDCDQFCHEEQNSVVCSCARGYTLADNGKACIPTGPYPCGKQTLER
T1 sequence (P00742 235-488): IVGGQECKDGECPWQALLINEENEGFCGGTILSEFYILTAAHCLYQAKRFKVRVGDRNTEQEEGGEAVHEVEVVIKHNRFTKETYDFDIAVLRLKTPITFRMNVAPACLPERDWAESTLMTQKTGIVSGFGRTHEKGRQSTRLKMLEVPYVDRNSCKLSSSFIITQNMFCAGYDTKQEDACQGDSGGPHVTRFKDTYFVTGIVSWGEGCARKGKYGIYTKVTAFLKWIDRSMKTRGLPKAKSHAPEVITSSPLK

Point of comparison: CCOC(=O)CNS(=O)(=O)N(Cc1ccc2ccc(C(=N)N)cc2c1)c1ccc(N2CCCN(C(C)=N)CC2)cc1 [Example 23, Ethyl N-[N-[4-(4-acetimidoylhexahydro-1H-1,4-diazepin-1-yl)phenyl]-N-[(7-amidino-2-naphthyl)methyl]-sulfamoyl]glycinate], EC (2-fold clotting time) 0.11 µM. Against it:
- CC(=N)N1CCCN(c2ccc(N(Cc3ccc4ccc(C(=N)N)cc4c3)C(C)=O)cc2)CC1 [Example 17] — within 1.5-fold, 0.092 µM
- CCOC(=O)CS(=O)(=O)N(Cc1ccc2ccc(C(=N)N)cc2c1)c1ccc(N2CCCN(C(C)=N)CC2)cc1 [Example 22, ethyl [N-[4-(4-acetimidoylhexahydro-1H-1,4-diazepin-1-yl)phenyl]-N-[(7-amidino-2-naphthyl)methyl]-sulfamoyl]acetate dihydrochloride] — within 1.5-fold, 0.111 µM
- CCOC(=O)CC(=O)N(Cc1ccc2ccc(C(=N)N)cc2c1)c1ccc(N2CCCN(C(C)=N)CC2)cc1 [Example 24, Ethyl N-[4-(4-acetimidoylhexahydro-1H-1,4-diazepin-1-yl)phenyl]-N-[(7-amidino-2-naphthyl)methyl]malonamate] — within 1.5-fold, 0.152 µM
- CC(=N)N1CCCN(c2ccc(N(Cc3ccc4ccc(C(=N)N)cc4c3)S(=O)(=O)CC(=O)O)cn2)CC1 [Example 32, [N-[6-(4-Acetimidoylhexahydro-1H-1,4-diazepin-1-yl)-3-pyridyl]-N-[(7-amidino-2-naphthyl)methyl]sulfamoyl]acetic acid] — within 1.5-fold, 0.089 µM
- CC(=N)N1CCCN(c2ccc(N(Cc3ccc4ccc(C(=N)N)cc4c3)S(=O)(=O)CC(=O)O)cc2)CC1 [Example 33, [N-[4-(4-acet-imidoylhexahydro-1H-1,4-diazepin-1-yl)phenyl]-N-[(7-amidino-2-naphthyl)methyl]sulfamoyl]acetic acid dihydro-chloride] — within 1.5-fold, 0.098 µM
- CC(=N)N1CCCN(c2ccc(N(Cc3ccc4ccc(C(=N)N)cc4c3)C(=O)CCC(=O)O)cc2)CC1 [Example 36, N-[4-(4-Acetimidoylhexahydro-1H-1,4-diazepin-1-yl)phenyl]-N-[(7-amidino-2-naphthyl)methyl] succinamic acid] — 1.6-fold lower, 0.069 µM
- CCOC(=O)CC(=O)N(Cc1ccc2ccc(C(=N)N)cc2c1)c1ccc(N2CCCN(C(C)=N)CC2)nc1 [Example 72] — within 1.5-fold, 0.119 µM
- CCOC(=O)CCC(=O)N(Cc1ccc2ccc(C(=N)N)cc2c1)c1ccc(N2CCCN(C(C)=N)CC2)nc1 [Example 73] — 2-fold higher, 0.224 µM
- CC(=N)N1CCCN(c2ccc(N(Cc3ccc4ccc(C(=N)N)cc4c3)C(=S)NCC(=O)O)cc2)CC1 [Example 75, N-[4-(4-Acetimidoylhexahydro-1H-1,4-diazepin-1-yl)phenyl]-N-[(7-amidino-2-naphthyl)methyl]thioamido-acetic acid] — within 1.5-fold, 0.095 µM
- CC(=N)N1CCCN(c2ccc(N(Cc3ccc4ccc(C(=N)N)cc4c3)C(=O)CCC(=O)O)cn2)CC1 [Example 84] — within 1.5-fold, 0.134 µM
